Read-outs that look alike come from different tables or passages of the source.
What was measured:
Assay type in all cases: cell-based, Candida tropicalis
ΔΔXyl2 [1] = conditions: YNB media; for starting xylose attenuated/bioconverted by ΔΔXyl2 with co-substrate: binary mixture of xylose and co-substrate
ΔΔXyl2 [2] = conditions: WSH; for starting xylose converted by ΔΔXyl2 with co-substrate: maltose value by 72 hr
Y6604 (NCYC 4190) = assay: Xylose utilisation of Y6604 in the presence of increased inhibitor concentrations; conditions: high or increasing inhibitor concentrations, minimal media, shake flasks
Description: FIG. 4 show graphs illustrating xylose utilisation profiles of Y6604 (NCYC 4190) in the presence of increased inhibitor concentrations. Graphs A, B, C, D, E and F represent strain performance in the presence of increasing concentrations of vanillin (VAN), transcinnamic acid (TRANSC), hydroxyl-benzaldehyde (HBA), syringaldehyde (S), furfural (F) and hydroxyl-methyl furfural (HMF) respectively. Indicated values in the legend represent concentrations in mg/100 mL. Xylose values are the mean of two replicates in minimal media in shake flasks;
Strain Y6604 (NCYC 4190) was compared with other xylose-utilizing isolates from the gut of click beetle to assess its inhibitor tolerance and xylose to xylitol conversion. […] Despite slower Y6604 (NCYC 4190) growth in corn stover hydrolysate, xylose consumption and subsequent xylitol production was largely unaffected when compared to other isolates (FIG. 2 A, B) and increased amounts of the sugar alcohol at a comparatively higher rate of production were apparent in hydrolysates obtained from Miscanthus (FIG. 2 C, D) and wheat straw (FIG. 2 E, F). Phylogenetic analysis of the D1/D2 domain confirmed strain identity to be Candida tropiclis (FIG. 3). Having observed the enhanced efficacy of Y6604 (NCYC 4190) in hydrolysates with high inhibitor loadings, the isolate's tolerance threshold to common inhibitors by measuring xylose uptake rates (FIG. 4) was then assessed.

Compound | rate of xylose conversion by ΔΔXyl2 with co-substrate (ΔΔXyl2 [1]) | starting xylose attenuated/bioconverted by ΔΔXyl2 with co-substrate (ΔΔXyl2 [1]) [%] | starting xylose converted by ΔΔXyl2 with co-substrate (ΔΔXyl2 [2]) | effect on xylose utilisation/uptake (Y6604 (NCYC 4190)) | also measured
OC[C@H]1O[C@H](O[C@H]2[C@H](O)[C@@H](O)C(O)O[C@@H]2CO)[C@H](O)[C@@H](O)[C@@H]1O (mixture of isomers) [maltose] | 0.5 g xylose per hr | 70 | more than 95% |  | rate of xylose conversion by ΔΔXyl2 with co-substrate (ΔΔXyl2 [2]): 0.78 g/h
O=Cc1ccc(CO)o1 [HMF, hydroxyl-methyl furfural] |  |  |  | enhance pentose uptake | 
O=C(CO)[C@@H](O)[C@H](O)[C@H](O)CO [fructose] | around 0.4 g xylose per hr | 54 |  |  | 
O=Cc1ccco1 [furfural] |  |  |  | completely abolished xylose uptake | 
O=C[C@H](O)[C@@H](O)[C@@H](O)[C@H](O)CO [galactose] |  | 34 | more than 90% |  | rate of xylose conversion by ΔΔXyl2 with co-substrate (ΔΔXyl2 [2]): 0.5 g/h; time to complete co-substrate exhaustion (ΔΔXyl2 [2]): ≤ 7 h; arabitol accumulation with co-substrate (ΔΔXyl2 [2]; compared to other potential co-substrates (FIG. 7G)): high amount of arabitol accumulation
OCC(O)CO [glycerol] | around 0.4 g xylose per hr |  | around 94% |  | 
COc1cc(C=O)cc(OC)c1O [syringaldehyde] |  |  |  | delayed xylose utilisation | 
O=C(O)/C=C/c1ccccc1 [transcinnamic acid] |  |  |  | delayed xylose utilisation | 
COc1cc(C=O)ccc1O [vanillin] |  |  |  | delayed xylose utilisation | 
hydroxyl-benzaldehyde |  |  |  | delayed xylose utilisation | 

— patent US11535872B2, “Microbial strains and uses thereof” (priority 2017, dated 2022)
